Experiments:
[1] = Fluorescence response of probe to increasing hypochlorous acid concentration; settings: 10 μM probe
Method: Specifically, Compound HKOCl-3 is dissolved in 0.1 M phosphate buffer at pH 7.4 to form a 10 μM solution, with excitation and emission spectra at 490 nm and 527 nm, respectively. The 10 μM solution of compound HKOCl-3 is treated with hypochlorous acid at various concentrations.
Specifically, compound HJ-3-279 is dissolved in 0.1 M phosphate buffer at pH 7.4 to form a 10 μM solution, with excitation and emission spectra at 490 nm and 527 nm, respectively. The 10 μM solution of Compound HJ-3-279 is treated with hypochlorous acid at various concentrations.
Specifically, Compound BXY2142 is dissolved in 0.1 M phosphate buffer at pH 7.4 to form a 10 μM solution, with excitation and emission spectra at 530 nm and 557 nm, respectively. The 10 μM solution of Compound BXY2142 is treated with hypochlorous acid at various concentrations.
Specifically, compound HJ-3-259 is dissolved in 0.1 M phosphate buffer at pH 7.4 to form a 10 μM solution, with excitation and emission spectra at 562 nm and 585 nm, respectively. The 10 μM solution of Compound HJ-3-259 is treated with hypochlorous acid at various concentrations.

[2] = Reactivity of probe toward different ROS and RNS (HOCl selectivity); settings: ONOO− 10 μM
Method: (§1) The reactivity of compound HKOCl-3 is compared toward different reactive oxygen species (ROS) and reactive nitrogen species (RNS). Specifically, the 10 μM solution of compound HKOCl-3 is treated with various ROS and RNS. The concentration of highly reactive oxygen species (hydroxyl radical (^●OH), hypochlorous acid (HOCl), and peroxynitrite (ONOO^−)) is 10 μM. The concentration of ^1O2, O2^●−, ^●NO, ROO^●, TBHP and H2O2 is 100 μM.
as §1, with “HJ-3-279” for “HKOCl-3”
as §1, with “BXY2142” for “HKOCl-3”, “[…],” for “^1O2, O2^●−,”
as §1, with “HJ-3-259” for “HKOCl-3”, “with” for “toward”

[3] = Reactivity of probe toward different ROS, RNS, FeCl2, FeCl3 and TCBQ (hydroxyl radical selectivity); settings: 5 μM probe, •OH, HOCl, ONOO−, FeCl2, FeCl3, TCBQ 5 μM, other ROS/RNS 50 μM, especially TCBQ/H2O2 system
Method: (§2) The reactivity of compound HYY166 is tested toward different reactive oxygen species (ROS), reactive nitrogen species (RNS), FeCl2, FeCl3 and TCBQ. Specifically, the 5 μM solution of compound HYY166 is treated with various ROS and RNS. The concentration of highly reactive oxygen species (hydroxyl radical (^●OH), hypochlorous acid (HOCl), and peroxynitrite (ONOO^−)), FeCl2, FeCl3 and TCBQ is 5 μM. The concentration of ^1O2, O2^●−, ^●NO, ROO^●, TBHP and H2O2 is 50 μM.
as §2, with “HKOH-1” for “HYY166”, “compared” for “tested”

[4] = Fluorescence response of probe to hydroxyl radical source (Fenton reagent; TCBQ/H2O2); settings: 5 μM probe, 0.1 M phosphate buffer pH 7.4, Fenton reagent or TCBQ/H2O2 (H2O2 10:1)
Method: (§3) Specifically, compound HYY166 is dissolved in 0.1 M phosphate buffer at pH 7.4 to form a 5 μM solution, with excitation and emission spectra at 490 nm and 520 nm, respectively. The 5 μM solution of compound HYY166 is treated with hydroxyl radical generated from different hydroxyl radical source: (1) Fenton reagent ([H2O2]:[FeCl2]=10:1); (2) Tetrachloro-1,4-benzoquinone (TCBQ)/H2O2 ([H2O2]:[TCBQ]=10:1) system.
as §3, with “HKOH-1” for “HYY166”, “504” for “490”, “525” for “520”

[5] = 10 μM probe, •OH, 1O2, O2•−, •NO, ROO•, TBHP, H2O2 100 μM, excitation 490 nm, emission 527 nm
[6] = 0.1 M phosphate buffer pH 7.4, excitation 490 nm, emission 527 nm
[7] = excitation 504 nm, emission 525 nm
[8] = excitation 490 nm, emission 520 nm

CCOC(=O)CCCN1c2cc3c(cc2C(C)CC1(C)C)C1(OC(=O)c2ccccc21)c1ccc(Oc2cc(Cl)c(O)c(Cl)c2)cc1O3 (stereo not shown) [BXY2142]
fluorescence intensity on treatment with hypochlorous acid at various concentrations ([1]; 0.1 M phosphate buffer pH 7.4, excitation 530 nm, emission 557 nm): increases with increasing concentration of hypochlorous acid

O=C1OC2(c3cc(Cl)c(O)cc3Oc3cc(Oc4cc(Cl)c(O)c(Cl)c4)c(Cl)cc32)c2ccccc21 (stereo not shown) [HJ-3-279]
increase in fluorescence intensity with hypochlorous acid versus other ROS and RNS [2, 5]: much higher increase | fluorescence intensity on treatment with hypochlorous acid at various concentrations [1, 6]: increases with increasing concentration of hypochlorous acid

O=C1OC2(c3ccc(O)cc3Oc3cc(Oc4cc(Cl)c(O)c(Cl)c4)ccc32)c2ccccc21 (stereo not shown) [HKOCl-3]
increase in fluorescence intensity with hypochlorous acid versus other ROS and RNS [2, 5]: much higher increase | increase in fluorescence intensity with hypochlorous acid versus other ROS and RNS ([2]; 10 μM solution of BXY2142, •OH, other ROS/RNS 100 μM, excitation 530 nm, emission 557 nm): much higher increase | fluorescence intensity on treatment with hypochlorous acid at various concentrations [1, 6]: increases with increasing concentration of hypochlorous acid

O=C1OC2(c3cc(Cl)c(O)cc3Oc3cc(Oc4cc(I)c(O)c(I)c4)c(Cl)cc32)c2ccccc21 (stereo not shown) [HKOH-1]
increase in fluorescence intensity with hydroxyl radical versus other ROS and RNS [3, 7]: much higher increase | fluorescence intensity on treatment with hydroxyl radical source [4, 7]: increases with increasing concentration of hydroxyl radical source

O=C1OC2(c3ccc(O)cc3Oc3cc(Oc4cc(I)c(O)c(I)c4)ccc32)c2ccccc21 (stereo not shown) [HYY166]
increase in fluorescence intensity with hydroxyl radical versus other ROS and RNS [3, 8]: much higher increase | fluorescence intensity on treatment with hydroxyl radical source [4, 8]: increases with increasing concentration of hydroxyl radical source

From US10684294B2, “Diarylether-based fluorogenic probes for detection of hypochlorous acid or hydroxyl radical” (THE UNIVERSITY OF HONG KONG, priority 2015, dated 2020)
